From PubChem BioAssay (NCI)
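Interpolation was linear, between the two tested concentrations surrounding the appropriate level; five concentrations were tested over 48 hours in 96-well plates. GI50: concentration for 50% inhibition of growth. TGI is the concentration that stops growth completely.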

Tests used:
Assay in all cases: NCI-60 cell line screen, 48 h
786-0 renal = test system: 786-0 renal
A498 renal = test system: A498 renal
A549 NSCLC = test system: A549 NSCLC
ACHN renal = test system: ACHN renal
BT-549 breast = test system: BT-549 breast
CAKI-1 renal = test system: CAKI-1 renal
CCRF-CEM leukemia = test system: CCRF-CEM leukemia
COLO 205 colon = test system: COLO 205 colon
DU-145 prostate = test system: DU-145 prostate
EKVX NSCLC = test system: EKVX NSCLC
HCC-2998 colon = test system: HCC-2998 colon
HCT-116 colon = test system: HCT-116 colon
HCT-15 colon = test system: HCT-15 colon
HL-60(TB) leukemia = test system: HL-60(TB) leukemia
HOP-62 NSCLC = test system: HOP-62 NSCLC
HOP-92 NSCLC = test system: HOP-92 NSCLC
HS 578T breast = test system: HS 578T breast
HT29 colon = test system: HT29 colon
K-562 leukemia = test system: K-562 leukemia
KM12 colon = test system: KM12 colon
LOX IMVI melanoma = test system: LOX IMVI melanoma
M14 melanoma = test system: M14 melanoma
MALME-3M melanoma = test system: MALME-3M melanoma
MCF7 breast = test system: MCF7 breast
MDA-MB-231 breast = test system: MDA-MB-231 breast
MDA-MB-435 = test system: MDA-MB-435
MOLT-4 leukemia = test system: MOLT-4 leukemia
NCI-H226 lung = test system: NCI-H226 lung
NCI-H23 lung = test system: NCI-H23 lung
NCI-H460 lung = test system: NCI-H460 lung
NCI-H522 lung = test system: NCI-H522 lung
NCI/ADR-RES ovarian = test system: NCI/ADR-RES ovarian
OVCAR-3 ovarian = test system: OVCAR-3 ovarian
OVCAR-4 ovarian = test system: OVCAR-4 ovarian
OVCAR-5 ovarian = test system: OVCAR-5 ovarian
OVCAR-8 ovarian = test system: OVCAR-8 ovarian
PC-3 prostate = test system: PC-3 prostate
RPMI-8226 leukemia = test system: RPMI-8226 leukemia
RXF 393 renal = test system: RXF 393 renal
SF-268 CNS = test system: SF-268 CNS
SF-295 CNS = test system: SF-295 CNS
SF-539 CNS = test system: SF-539 CNS
SK-MEL-2 melanoma = test system: SK-MEL-2 melanoma
SK-MEL-28 melanoma = test system: SK-MEL-28 melanoma
SK-MEL-5 melanoma = test system: SK-MEL-5 melanoma
SK-OV-3 ovarian = test system: SK-OV-3 ovarian
SN12C renal = test system: SN12C renal
SNB-19 CNS = test system: SNB-19 CNS
SNB-75 CNS = test system: SNB-75 CNS
SW-620 colon = test system: SW-620 colon
T-47D breast = test system: T-47D breast
TK-10 renal = test system: TK-10 renal
U251 CNS = test system: U251 CNS
UACC-257 melanoma = test system: UACC-257 melanoma
UACC-62 melanoma = test system: UACC-62 melanoma
UO-31 renal = test system: UO-31 renal

For `COc1ccc2c3c(c4ccccc4cc13)C(=O)N(CCN(C)CCN)C2=O`, the GI50 (786-0 renal) was 38.8 nM, the TGI (786-0 renal) was 700 nM and the GI50 (A498 renal) was 393 nM. For the same compound, the TGI (A498 renal) was 1730 nM, the GI50 (A549 NSCLC) was 11.3 nM and the TGI (A549 NSCLC) was 243 nM. The GI50 (ACHN renal) was 18.7 nM, the TGI (ACHN renal) was 170 nM and the GI50 (BT-549 breast) was 329 nM. The TGI (BT-549 breast) was 1840 nM, the GI50 (CAKI-1 renal) was 54.1 nM and the TGI (CAKI-1 renal) was 2820 nM. It also gave a GI50 (CCRF-CEM leukemia) of 21 nM, a TGI (CCRF-CEM leukemia) of 220 nM and a GI50 (COLO 205 colon) of 84.3 nM. The TGI (COLO 205 colon) was 1270 nM, the GI50 (DU-145 prostate) was 66.3 nM and the TGI (DU-145 prostate) was 1040 nM. It also gave a GI50 (EKVX NSCLC) of 538 nM, a TGI (EKVX NSCLC) of 2060 nM and a GI50 (HCC-2998 colon) of 182 nM. It also gave a TGI (HCC-2998 colon) of 1650 nM, a GI50 (HCT-116 colon) of 31.2 nM and a TGI (HCT-116 colon) of 1170 nM. The GI50 (HCT-15 colon) was 45.3 nM, the TGI (HCT-15 colon) was 1010 nM and the GI50 (HL-60(TB) leukemia) was 27.2 nM. For the same compound, the TGI (HL-60(TB) leukemia) was 361 nM, the GI50 (HOP-62 NSCLC) was 26.7 nM and the TGI (HOP-62 NSCLC) was 264 nM. For the same compound, the GI50 (HOP-92 NSCLC) was 114 nM, the TGI (HOP-92 NSCLC) was 896 nM and the GI50 (HS 578T breast) was 1190 nM. The TGI (HS 578T breast) was 3670 nM, the GI50 (HT29 colon) was 114 nM and the TGI (HT29 colon) was 1130 nM. It also gave a GI50 (K-562 leukemia) of 204 nM, a TGI (K-562 leukemia) of 1320 nM and a GI50 (KM12 colon) of 171 nM. It also gave a TGI (KM12 colon) of 1280 nM, a GI50 (LOX IMVI melanoma) of 44.6 nM and a TGI (LOX IMVI melanoma) of 381 nM. It also gave a GI50 (M14 melanoma) of 59.9 nM, a TGI (M14 melanoma) of 1320 nM and a GI50 (MALME-3M melanoma) of 79.9 nM. The TGI (MALME-3M melanoma) was 1270 nM, the GI50 (MCF7 breast) was 13.3 nM and the TGI (MCF7 breast) was 1100 nM. It also gave a GI50 (MDA-MB-231 breast) of 518 nM, a TGI (MDA-MB-231 breast) of 1940 nM and a GI50 (MDA-MB-435) of 343 nM. For the same compound, the TGI (MDA-MB-435) was 1710 nM, the TGI (MOLT-4 leukemia) was 301 nM and the GI50 (NCI-H226 lung) was 145 nM. It also gave a TGI (NCI-H226 lung) of 383 nM, a GI50 (NCI-H23 lung) of 90.2 nM and a TGI (NCI-H23 lung) of 1280 nM. The GI50 (NCI-H460 lung) was 12.9 nM, the TGI (NCI-H460 lung) was 323 nM and the GI50 (NCI-H522 lung) was 74.2 nM. The TGI (NCI-H522 lung) was 1230 nM, the GI50 (NCI/ADR-RES ovarian) was 116 nM and the TGI (NCI/ADR-RES ovarian) was 1650 nM. It also gave a GI50 (OVCAR-3 ovarian) of 257 nM, a TGI (OVCAR-3 ovarian) of 1190 nM and a GI50 (OVCAR-4 ovarian) of 299 nM. The TGI (OVCAR-4 ovarian) was 1700 nM, the GI50 (OVCAR-5 ovarian) was 293 nM and the TGI (OVCAR-5 ovarian) was 1540 nM. For the same compound, the GI50 (OVCAR-8 ovarian) was 107 nM, the TGI (OVCAR-8 ovarian) was 1610 nM and the GI50 (PC-3 prostate) was 338 nM. For the same compound, the TGI (PC-3 prostate) was 1930 nM, the GI50 (RPMI-8226 leukemia) was 166 nM and the TGI (RPMI-8226 leukemia) was 750 nM. It also gave a GI50 (RXF 393 renal) of 259 nM, a TGI (RXF 393 renal) of 1290 nM and a GI50 (SF-268 CNS) of 106 nM. The TGI (SF-268 CNS) was 1490 nM, the GI50 (SF-295 CNS) was 43.7 nM and the TGI (SF-295 CNS) was 1030 nM. The GI50 (SF-539 CNS) was 186 nM, the TGI (SF-539 CNS) was 1350 nM and the GI50 (SK-MEL-2 melanoma) was 887 nM. The TGI (SK-MEL-2 melanoma) was 18500 nM, the GI50 (SK-MEL-28 melanoma) was 1090 nM and the TGI (SK-MEL-28 melanoma) was 2480 nM. For the same compound, the GI50 (SK-MEL-5 melanoma) was 186 nM, the TGI (SK-MEL-5 melanoma) was 1280 nM and the GI50 (SK-OV-3 ovarian) was 69.2 nM. The TGI (SK-OV-3 ovarian) was 806 nM, the GI50 (SN12C renal) was 56.2 nM and the TGI (SN12C renal) was 911 nM. The GI50 (SNB-19 CNS) was 69.2 nM, the TGI (SNB-19 CNS) was 1270 nM and the GI50 (SNB-75 CNS) was 166 nM. The TGI (SNB-75 CNS) was 1370 nM, the GI50 (SW-620 colon) was 51.5 nM and the TGI (SW-620 colon) was 1320 nM. It also gave a GI50 (T-47D breast) of 87.7 nM, a TGI (T-47D breast) of 12600 nM and a GI50 (TK-10 renal) of 130 nM. For the same compound, the TGI (TK-10 renal) was 1310 nM, the GI50 (U251 CNS) was 77.6 nM and the TGI (U251 CNS) was 1210 nM. It also gave a GI50 (UACC-257 melanoma) of 483 nM, a TGI (UACC-257 melanoma) of 17400 nM and a GI50 (UACC-62 melanoma) of 77 nM. The TGI (UACC-62 melanoma) was 1560 nM, the GI50 (UO-31 renal) was 65 nM and the TGI (UO-31 renal) was 1350 nM.
